Experimental data reported in US20250171437A1 (Agios Pharmaceuticals,Inc., priority 2022, published 2025).

Biological target: T1, human PAH with the R408W mutation (A375 R408W cells) (Homo sapiens, UniProt P00439, R408W)
T1 construct: expressed in transfected cells
T1 sequence (P00439 1-452 R408W): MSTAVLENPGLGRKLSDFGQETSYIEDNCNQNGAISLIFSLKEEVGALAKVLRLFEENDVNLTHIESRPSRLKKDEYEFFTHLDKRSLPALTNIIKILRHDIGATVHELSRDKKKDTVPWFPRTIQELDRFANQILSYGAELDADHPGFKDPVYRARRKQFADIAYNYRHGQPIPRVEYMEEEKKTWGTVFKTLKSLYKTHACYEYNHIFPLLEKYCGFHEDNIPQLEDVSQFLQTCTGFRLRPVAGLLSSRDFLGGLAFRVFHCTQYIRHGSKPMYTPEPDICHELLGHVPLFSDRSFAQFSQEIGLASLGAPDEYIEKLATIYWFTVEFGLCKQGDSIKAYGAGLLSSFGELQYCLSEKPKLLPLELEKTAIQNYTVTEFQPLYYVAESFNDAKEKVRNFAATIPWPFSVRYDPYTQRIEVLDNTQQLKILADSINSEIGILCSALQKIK
Assay: Cell Based Phenylalanine Flux Assay
Conditions: A375 R408W cells; 24 hrs with compound, then 20 μM sepiapterin and 800 μM 13C9,15N-Phenylalanine for 4 hours; 13C-Tyrosine by LC-MS; average where tested multiple times
Procedure, shortened: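 Puromycin-selected A375 line, lentiviral hPAH R408W; cmpd 24 h, 37 °C, 5% CO2, 0.5% DMSO; then 20 μM sepiapterin + 800 μM 13C9,15N-Phe, 4 h; media extracted in 80% MeCN; 13C-Tyr by LC-MS; AC50 from 10-pt curves.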

Row | AC50 [µM] | Molecule
1 | 1 to 5 | Cc1ncoc1C(=O)N1Cc2[nH]cnc2[C@@H]1c1nc2ccccc2o1 [Example 942, (R)-(4-(benzo[d]oxazol-2-yl)-4,6-dihydropyrrolo[3,4-d]imidazol-5(1H)-yl)(4-methyloxazol-5-yl)methanone]
2 | ≥ 5 | FC(F)(F)c1nnc(N2Cc3[nH]cnc3[C@@H]2c2nc3ccccc3o2)o1 [Example 945, (R)-2-(5-(5-(trifluoromethyl)-1,3,4-oxadiazol-2-yl)-1,4,5,6-tetrahydropyrrolo[3,4-d]imidazol-4-yl)benzo[d]oxazole]
3 | 1 to 5 | FC(F)(F)c1nnc(N2Cc3[nH]cnc3[C@H]2c2nc3ccccc3o2)o1 [Example 946, (S)-2-(5-(5-(trifluoromethyl)-1,3,4-oxadiazol-2-yl)-1,4,5,6-tetrahydropyrrolo[3,4-d]imidazol-4-yl)benzo[d]oxazole]
4 | 1 to 5 | FC(F)(F)c1cnc(N2Cc3[nH]cnc3[C@H]2c2nc3ccccc3o2)nc1 [Example 949, (S)-2-(5-(5-(trifluoromethyl)pyrimidin-2-yl)-1,4,5,6-tetrahydropyrrolo[3,4-d]imidazol-4-yl)benzo[d]oxazole]
5 | 1 to 5 | O=C(c1ccnn1C(F)(F)F)N1Cc2[nH]cnc2[C@H]1c1nc2ccccc2o1 [Example 953, (S)-(4-(benzo[d]oxazol-2-yl)-4,6-dihydropyrrolo[3,4-d]imidazol-5(1H)-yl)(1-(trifluoromethyl)-1H-pyrazol-5-yl)methanone]
6 | 1 to 5 | (R)-(3-chloro-1-methyl-1H-1,2,4-triazol-5-yl)(4-(6-fluorobenzo[d]oxazol-2-yl)-6,7-dihydro-1H-imidazo[4,5-c]pyridin-5(4H)-yl)methanone [Example 344]
7 | 1 to 5 | (R)-(4-(5,7-difluorobenzo[d]oxazol-2-yl)-6,7-dihydro-1H-imidazo[4,5-c]pyridin-5(4H)-yl)(5-(1-methyl-1H-pyrazol-4-yl)-1,3,4-oxadiazol-2-yl)methanone [Example 610]
8 | ≥ 5 | (R)-(4-(5-fluorobenzo[d]oxazol-2-yl)-6,7-dihydro-1H-imidazo[4,5-c]pyridin-5(4H)-yl)(6-(methoxymethyl)pyrazolo[1,5-a]pyridin-3-yl)methanone [Example 30]

Further lines, the molecule ahead of its results:

Row | Molecule | AC50 [µM]
9 | O=C(c1ocnc1C(F)(F)F)N1Cc2[nH]cnc2[C@@H]1c1nc2ccccc2o1 [Example 943, (R)-(4-(benzo[d]oxazol-2-yl)-4,6-dihydropyrrolo[3,4-d]imidazol-5(1H)-yl)(4-(trifluoromethyl)oxazol-5-yl)methanone] | 1 to 5
10 | O=C(c1ocnc1C(F)(F)F)N1Cc2[nH]cnc2[C@H]1c1nc2ccccc2o1 [Example 944, (S)-(4-(benzo[d]oxazol-2-yl)-4,6-dihydropyrrolo[3,4-d]imidazol-5(1H)-yl)(4-(trifluoromethyl)oxazol-5-yl)methanone] | 1 to 5
11 | CC(C)(O)c1nc(C(F)F)c(C(=O)N2Cc3[nH]cnc3[C@H]2c2nc3ccccc3o2)o1 [Example 947, (S)-(4-(benzo[d]oxazol-2-yl)-4,6-dihydropyrrolo[3,4-d]imidazol-5(1H)-yl)(4-(difluoromethyl)-2-(2-hydroxypropan-2-yl)oxazol-5-yl)methanone] | ≥ 5
12 | O=C(c1ccnn1C(F)F)N1Cc2[nH]cnc2[C@H]1c1nc2ccccc2o1 [Example 951, (S)-(4-(benzo[d]oxazol-2-yl)-4,6-dihydropyrrolo[3,4-d]imidazol-5(1H)-yl)(1-(difluoromethyl)-1H-pyrazol-5-yl)methanone] | 1 to 5
13 | (R)-(3-(difluoromethyl)-1-methyl-1H-1,2,4-triazol-5-yl)(4-(4-methylbenzo[d]oxazol-2-yl)-6,7-dihydro-1H-imidazo[4,5-c]pyridin-5(4H)-yl)methanone [Example 814] | ≤ 0.5
14 | (R)-(4-(deuterium)-2-(2-hydroxypropan-2-yl)oxazol-5-yl)(4-fluoro-4-(5-fluorobenzo[d]oxazol-2-yl)-6,7-dihydro-1H-imidazo[4,5-c]pyridin-5(4H)-yl)methanone [Example 906] | ≥ 5
